The target of test [1] is T1, DYRK1A (Homo sapiens, UniProt Q13627).
T1 construct: purchased DiscoverX
Kind of test: KINOMEscan DYRK1A binding assay (DiscoverX), Kd determination. As to conditions: eleven serial three fold dilutions, highest concentration 60 μM, several values in a cell = repeat determinations. As for the experimental part:
Compounds were tested for DYRK1A binding activity at DiscoverX. DiscoverX uses proprietary KINOMEscan® Assay (Fabian et al., “A Small Molecule-kinase Interaction Map for Clinical Kinase Inhibitors,” Nat. Biotechnol. 23(3):329-336 (2005), which is hereby incorporated by reference in its entirety). Compounds were screened for DYRK1A activity at a single concentration of 3 μM in duplicates. Similarly, the dissociation constant Kd of the hit compounds from the initial screening was determined at DiscoverX using their proprietary KINOMEscan® Assay. Kd values are determined using eleven serial three fold dilutions with the highest concentration of 60 μM.

Test [2] deals with T2, DYRK1/DYRK1A (Homo sapiens, UniProt Q13627).
T2 construct: purchased Reaction Biology Corp
Nature of the test: DYRK1/DYRK1A IC50 assay (Reaction Biology Corp.). Type of test: biochemical. The following applies: DYRK1/DYRK1A assay from Reaction Biology Corp.

The values below come from patent US20220162182A1, “KINASE INHIBITOR COMPOUNDS AND COMPOSITIONS AND METHODS OF USE” (ICAHN SCHOOL OF MEDICINE AT MOUNT SINAI, priority 2018, published 2022).

Several values for one entry are separate records, joined by “and”; a condition that tells them apart may be missing. Equal values may be shown once.

Usually Kd stands for the free concentration of one partner at which half of the binding sites on the other are occupied at equilibrium, for simple one-to-one binding. A high value points to a looser complex. Turning to `Cc1ncc(-c2ccc3[nH]c(=O)[nH]c3c2)cc1NCc1ccccc1` [Compound 13c, 5-(5-(Benzylamino)-6-methylpyridin-3-yl)-1H-benzo[d]imidazol-2(3H)-one], in test [1], the Kd was 140 nM.
Same read-out and setting: the same measure for `Cc1ncc(-c2ccc3[nH]c(=O)[nH]c3c2)cc1NCc1ccc(F)cc1` [Compound 13d, 5-(5-((4-Fluorobenzyl)amino)-6-methylpyridin-3-yl)-1H-benzo[d]imidazol-2(3H)-one]: 240 nM.
In the case of `O=C1Cc2cc(-c3cncc(NCc4ccccc4)c3)ccc2N1` [Compound 13e, 5-(5-(Benzylamino)pyridin-3-yl)indolin-2-one], the Kd in test [1] was 1.3 nM and 1.9 nM.
Molecule `O=c1[nH]c2ccc(-c3cncc(NCc4ccccc4F)c3)cc2[nH]1` [Compound 30a, 5-(5-((2-Fluorobenzyl)amino)pyridin-3-yl)-1H-benzo[d]imidazol-2(3H)-one] yielded a Kd in test [1] of 1.2 nM.
On the same count and under the same terms, the same measure for `O=c1[nH]c2ccc(-c3cncc(NCc4cccc(F)c4)c3)cc2[nH]1` [Compound 30b, 5-(5-((3-Fluorobenzyl)amino)pyridin-3-yl)-1H-benzo[d]imidazol-2(3H)-one]: 1.2 nM.
For `O=c1[nH]c2ccc(-c3cncc(NCc4ccccc4Cl)c3)cc2[nH]1` [Compound 30c, 5-(5-((2-Chlorobenzyl)amino)pyridin-3-yl)-1H-benzo[d]imidazol-2(3H)-one], the Kd in test [1] is 1.3 nM.
On the same count and under the same terms, as for `O=c1[nH]c2ccc(-c3cncc(NCc4ccc(Cl)cc4)c3)cc2[nH]1` [Compound 30e, 5-(5-((4-Chlorobenzyl)amino)pyridin-3-yl)-1H-benzo[d]imidazol-2(3H)-one], the figure is 23 nM; as for `N#Cc1cccc(CNc2cncc(-c3ccc4[nH]c(=O)[nH]c4c3)c2)c1` [Compound 30f, 3-(((5-(2-Oxo-2,3-dihydro-1H-benzo[d]imidazol-5-yl)pyridin-3-yl)amino)methyl)benzonitrile], 5.8 nM; as for `N#Cc1ccc(CNc2cncc(-c3ccc4[nH]c(=O)[nH]c4c3)c2)cc1` [Compound 30g, 4-(((5-(2-Oxo-2,3-dihydro-1H-benzo[d]imidazol-5-yl)pyridin-3-yl)amino)methyl)benzonitrile], 31 nM.
Consider `O=c1[nH]c2ccc(-c3cncc(NCc4ccc(-c5ccccc5)cc4)c3)cc2[nH]1` [Compound 30h, 5-(5-(([1,1′-Biphenyl]-4-ylmethyl)amino)pyridin-3-yl)-1H-benzo[d]imidazol-2(3H)-one], for which the Kd in test [1] amounted to 1200 nM.
As to `CC(Nc1cncc(-c2ccc3[nH]c(=O)[nH]c3c2)c1)c1ccccc1` (stereo not shown) [Compound 30j, 5-(5-((1-Phenylethyl)amino)pyridin-3-yl)-1H-benzo[d]imidazol-2(3H)-one], the dissociation constant Kd in test [1] is 0.71 nM and 1.1 nM.
The molecule `O=c1[nH]c2ccc(-c3cncc(NCCc4ccccc4)c3)cc2[nH]1` [Compound 30k, 5-(5-(Phenethylamino)pyridin-3-yl)-1H-benzo[d]imidazol-2(3H)-one] displayed a Kd in test [1] of 4.3 nM.
For the molecule `CC(Nc1cncc(-c2ccc3[nH]c(=O)n(C)c3c2)c1)c1ccccc1` (stereo not shown) [Compound 30n, 1-Methyl-6-(5-((1-phenylethyl)amino)pyridin-3-yl)-1H-benzo[d]imidazol-2(3H)-one], the Kd in test [1] came out at 0.81 nM.
Usually IC50 stands for the concentration at which inhibition is half-maximal. A low value points to greater potency. Consider `O=c1[nH]c2ccc(-c3cncc(NCCCc4ccccc4)c3)cc2[nH]1` [Compound 30p, 5-(5-((3-Phenylpropyl)amino)pyridin-3-yl)-1H-benzo[d]imidazol-2(3H)-one], for which, in test [2], the IC50 was determined as 1.83 nM. This molecule also returned a Kd in test [1] of 15 nM.
Turning to `Cn1c(=O)[nH]c2ccc(-c3cncc(NCc4ccccc4F)c3)cc21` [Compound 30q, 6-(5-((2-Fluorobenzyl)amino)pyridin-3-yl)-1-methyl-1H-benzo[d]imidazol-2(3H)-one], the IC50 in test [2] came to 0.3 nM. The same molecule registered a dissociation constant (Kd) in test [1] of 0.86 nM.
Turning to `Cn1c(=O)[nH]c2ccc(-c3cncc(NCc4ccccc4Cl)c3)cc21` [Compound 30r, 6-(5-((2-Chlorobenzyl)amino)pyridin-3-yl)-1-methyl-1H-benzo[d]imidazol-2(3H)-one], the IC50 in test [2] is 0.1 nM. For the same molecule, in test [1], the Kd amounted to 1.3 nM.
As for `O=c1[nH]c2ccc(-c3cncc(NCc4ccccn4)c3)cc2[nH]1` [Compound 31a, 5-(5-((Pyridin-2-ylmethyl)amino)pyridin-3-yl)-1H-benzo[d]imidazol-2(3H)-one], in test [1], the affinity, expressed as Kd, was 1.2 nM.
Still for that read-out and setting: as for `O=c1[nH]c2ccc(-c3cncc(NCc4cccnc4)c3)cc2[nH]1` [Compound 31b, 5-(5-((Pyridin-3-ylmethyl)amino)pyridin-3-yl)-1H-benzo[d]imidazol-2(3H)-one], the figure is 2.1 nM.
`O=c1[nH]c2ccc(-c3cncc(NCc4ccncc4)c3)cc2[nH]1` [Compound 31c, 5-(5-((Pyridin-4-ylmethyl)amino)pyridin-3-yl)-1H-benzo[d]imidazol-2(3H)-one] registered a Kd in test [1] of 3.9 nM.
Regarding `O=c1[nH]c2ccc(-c3cncc(NCc4cccc5ccccc45)c3)cc2[nH]1` [Compound 31d, 5-(5-((Naphthalen-1-ylmethyl)amino)pyridin-3-yl)-1H-benzo[d]imidazol-2(3H)-one], in test [1], the affinity, expressed as Kd, was 28 nM.
In turn, `O=c1[nH]c2ccc(-c3cncc(NCc4ccc5ccccc5c4)c3)cc2[nH]1` [Compound 31e, 5-(5-((Naphthalen-2-ylmethyl)amino)pyridin-3-yl)-1H-benzo[d]imidazol-2(3H)-one] displayed a Kd in test [1] of 100 nM.
Consider `NC(=O)c1cccc(CNc2cncc(-c3ccc4[nH]c(=O)[nH]c4c3)c2)c1` [Compound 33a, 3-(((5-(2-Oxo-2,3-dihydro-1H-benzo[d]imidazol-5-yl)pyridin-3-yl)amino)methyl)benzamide], for which binding in test [1] was characterised by a dissociation constant (Kd) of 9.9 nM.
As for `NC(=O)c1ccc(CNc2cncc(-c3ccc4[nH]c(=O)[nH]c4c3)c2)cc1` [Compound 33b, 4-(((5-(2-Oxo-2,3-dihydro-1H-benzo[d]imidazol-5-yl)pyridin-3-yl)amino)methyl)benzamide], the Kd in test [1] was found to be 14 nM.
Turning to `N[C@H](Cc1ccccc1)c1cncc(-c2ccc3[nH]c(=O)[nH]c3c2)c1` [Compound 65a, (R)-5-(5-(1-Amino-2-phenylethyl)pyridin-3-yl)-1H-benzo[d]imidazol-2(3H)-one], in test [2], the IC50 was 3.98 nM. Binding in test [1] was characterised by a dissociation constant (Kd) of 3.2 nM.
Taken in the same sequence, the figures for `N[C@@H](Cc1ccccc1)c1cncc(-c2ccc3[nH]c(=O)[nH]c3c2)c1` [Compound 65b, (S)-5-(5-(1-Amino-2-phenylethyl)pyridin-3-yl)-1H-benzo[d]imidazol-2(3H)-one] were 23.2 nM and 15 nM.
Regarding `C[C@@H](Nc1cncc(-c2ccc3[nH]c(=O)[nH]c3c2)c1)c1ccccc1` [Compound 68a, (R)-5-(5-((1-Phenylethyl)amino)pyridin-3-yl)-1H-benzo[d]imidazol-2(3H)-one], inhibition in test [2] was half-maximal at 0.21 nM (IC50). The Kd in test [1] came to 0.59 nM.
The molecule `C[C@H](Nc1cncc(-c2ccc3[nH]c(=O)[nH]c3c2)c1)c1ccccc1` [Compound 68b, (S)-5-(5-((1-Phenylethyl)amino)pyridin-3-yl)-1H-benzo[d]imidazol-2(3H)-one] came in with a concentration for half-maximal inhibition (IC50) in test [2] of 2.18 nM. In test [1], the Kd amounted to 7.5 nM.
